Converted amounts (≈) assume the structure as drawn. “And” between values parts separate entries of the source, which are not always exact repeats. Equal values may be shown once. Positions of bridges follow the written chain, without caps; N, C: chain ends. Residues, ends and D or L forms follow the SMILES beside them.
Columns and labels:
[1] = test system: methicillin-resistant S. aureus (MRSA) (NCTC12493); type: cell-based, Staphylococcus aureus
Experimental: (§1) The antimicrobial assay was carried out to detect the minimum inhibitory concentration (MIC) and the minimum bactericidal concentration (MBC) of each peptide on the microbes as described previously. Seven different microorganisms were used in the assay: Gram-positive bacteria Staphylococcus aureus (NCTC10788), Enterococcus faecalis (NCTC12697), and methicillin-resistant S. aureus (MRSA) (NCTC12493); Gram-negative bacteria Escherichia coli (NCTC10418), Pseudomonas aeruginosa (ATCC27853), and Klebsiella pneumoniae (ATCC 43816); and fungi Candida albicans (NCYC1467). Bacterial strains were inoculated and grown to mid-log phase in fresh Mueller Hinton broth (MHB) at 37 °C for overnight, then bacteria inoculum suspensions were subcultured until reaching the logarithmic growth phase by measuring OD of the cultures at wavelength 550 nm. Then, 99 µL bacteria and 1 µL peptide solution were mixed in the 96-wells microplate. For positive and negative controls, the bacteria were incubated with antibiotics (Norfloxacin for Gram-positive bacteria and Gram-negative bacteria; Amphotericin B for fungi) solution and MHB medium, respectively. Experiments were repeated five times in five replicates.

[2] = test system: horse erythrocytes; assay: Haemolytic assay; type: cell-based; conditions: 2% (v/v) horse red blood cells, 37 °C, 2 h; 1% Triton-X 100 positive control; three times in five replicates
Experimental: The haemolytic assay was carried out to detect the cytotoxicity of each peptide to erythrocytes obtained from fresh defibrinated horse blood as described before. An appropriate volume of horse blood solution was collected via washing and transferring until the supernatant was clear. Then, 2% (v/v) suspension of red blood cells were incubated with peptide at 37 °C for 2 h. For positive and negative controls, the red blood cells were incubated with 1% (v/v) Triton-X 100 and Phosphate-buffered saline (PBS) solution, respectively. The 10% of maximal haemolysis concentration (HC10, μM) was utilised to assess the haemolytic potential. Experiments were repeated three times in five replicates.

[3] = test system: Pseudomonas aeruginosa (ATCC27853); type: cell-based
Experimental: as §1

[4] = test system: Enterococcus faecalis (NCTC12697); type: cell-based
Experimental: as §1

[5] = test system: Klebsiella pneumoniae (ATCC 43816); type: cell-based
Experimental: as §1

[6] = test system: Candida albicans (NCYC1467); type: cell-based
Experimental: as §1

[7] = test system: Staphylococcus aureus (NCTC10788); type: cell-based
Experimental: as §1

[8] = test system: Escherichia coli (NCTC10418); type: cell-based
Experimental: as §1

Row | Compound | MBC MRSA [1] | MIC MRSA [1] | HC10 (concentration causing 10% red cell lysis) [2] | MBC P. aeruginosa [3] | MIC P. aeruginosa [3] | MBC E. faecalis [4] | MIC E. faecalis [4] | MBC K. pneumoniae [5] | MIC K. pneumoniae [5] | MBC C. albicans [6] | MIC C. albicans [6] | MBC S. aureus [7] | MBC E. coli [8] | MIC E. coli [8]
1 | CC[C@H](C)[C@@H]1NC(=O)[C@H](C)NC(=O)[C@@H](NC(=O)[C@H](Cc2ccccc2)NC(=O)[C@@H](NC(=O)[C@H](CCCCN)NC(=O)[C@@H]2CCCN2C(=O)[C@H](CC(C)C)NC(=O)[C@H](Cc2ccccc2)NC(=O)[C@@H](N)CCCCN)[C@@H](C)CC)CSSC[C@@H](C(=O)O)NC(=O)[C@H](CCCCN)NC(=O)[C@H](CCCCN)NC(=O)[C@H]([C@@H](C)O)NC1=O [KB2] (H-KFLPKIFCAITKKC-OH; disulfide 8-14) | 128 µM (≈ 210 µg/mL) | 16 µM (≈ 26.2 µg/mL) | 154 µM | > 512 µM | 512 µM (≈ 839 µg/mL) | > 512 µM | 512 µM (≈ 839 µg/mL) | 256 µM (≈ 419 µg/mL) | 256 µM (≈ 419 µg/mL) | 512 µM (≈ 839 µg/mL) | 128 µM (≈ 210 µg/mL) |  |  | 
2 | CC[C@H](C)[C@@H]1NC(=O)[C@H](C)NC(=O)[C@@H](NC(=O)[C@H](Cc2ccccc2)NC(=O)[C@@H](NC(=O)[C@H](CCCCN)NC(=O)[C@@H]2CCCN2C(=O)[C@H](CC(C)C)NC(=O)[C@H](Cc2ccccc2)NC(=O)[C@H](CCCCN)NC(=O)[C@@H](N)CCCCN)[C@@H](C)CC)CSSC[C@@H](C(=O)O)NC(=O)[C@H](CCCCN)NC(=O)[C@H](CCCCN)NC(=O)[C@H]([C@@H](C)O)NC1=O [KKB2] (H-KKFLPKIFCAITKKC-OH; disulfide 9-15) | 64 µM (≈ 113 µg/mL) | 16 µM (≈ 28.3 µg/mL) | 207 µM | > 512 µM | 256 µM (≈ 452 µg/mL) | 512 µM (≈ 904 µg/mL) | 512 µM (≈ 904 µg/mL) | 256 µM (≈ 452 µg/mL) | 128 µM (≈ 226 µg/mL) | 64 µM (≈ 113 µg/mL) | 32 µM (≈ 56.5 µg/mL) | 64 µM (≈ 113 µg/mL) | 32 µM (≈ 56.5 µg/mL) | 16 µM (≈ 28.3 µg/mL)
3 | CC[C@H](C)[C@@H]1NC(=O)[C@H](C)NC(=O)[C@@H](NC(=O)[C@H](Cc2ccccc2)NC(=O)[C@@H](NC(=O)[C@H](CCCCN)NC(=O)[C@H](Cc2c[nH]c3ccccc23)NC(=O)[C@@H]2CCCN2C(=O)[C@H](CC(C)C)NC(=O)[C@H](Cc2ccccc2)NC(=O)[C@H](CCCCN)NC(=O)[C@@H](N)CCCCN)[C@@H](C)CC)CSSC[C@@H](C(=O)O)NC(=O)[C@H](CCCCN)NC(=O)[C@H](CCCCN)NC(=O)[C@H]([C@@H](C)O)NC1=O [KKWB2] (H-KKFLPWKIFCAITKKC-OH; disulfide 10-16) | 32 µM (≈ 62.5 µg/mL) | 8 µM (≈ 15.6 µg/mL) | 140.04 µM | 64 µM (≈ 125 µg/mL) | 64 µM (≈ 125 µg/mL) | 512 µM (≈ 1000 µg/mL) | 256 µM (≈ 500 µg/mL) | 32 µM (≈ 62.5 µg/mL) | 32 µM (≈ 62.5 µg/mL) | 32 µM (≈ 62.5 µg/mL) | 8 µM (≈ 15.6 µg/mL) | 16 µM (≈ 31.2 µg/mL) | 32 µM (≈ 62.5 µg/mL) | 16 µM (≈ 31.2 µg/mL)
4 | CC[C@H](C)[C@@H]1NC(=O)[C@H](C)NC(=O)[C@@H](NC(=O)[C@H](Cc2ccccc2)NC(=O)[C@@H](NC(=O)[C@H](CCCCN)NC(=O)[C@H](Cc2c[nH]c3ccccc23)NC(=O)[C@@H]2CCCN2C(=O)[C@H](CC(C)C)NC(=O)[C@H](Cc2ccccc2)NC(=O)[C@@H](N)CCCCN)[C@@H](C)CC)CSSC[C@@H](C(=O)O)NC(=O)[C@H](CCCCN)NC(=O)[C@H](CCCCN)NC(=O)[C@H]([C@@H](C)O)NC1=O [KWB2] (H-KFLPWKIFCAITKKC-OH; disulfide 9-15) | 64 µM (≈ 117 µg/mL) | 8 µM (≈ 14.6 µg/mL) | 99.81 µM | 256 µM (≈ 467 µg/mL) | 128 µM (≈ 234 µg/mL) | 512 µM (≈ 934 µg/mL) | 256 µM (≈ 467 µg/mL) | 128 µM (≈ 234 µg/mL) | 64 µM (≈ 117 µg/mL) | 64 µM (≈ 117 µg/mL) | 16 µM (≈ 29.2 µg/mL) | 32 µM (≈ 58.4 µg/mL) | 32 µM (≈ 58.4 µg/mL) | 16 µM (≈ 29.2 µg/mL)
5 | CC[C@H](C)[C@@H]1NC(=O)[C@H](C)NC(=O)[C@@H](NC(=O)[C@H](Cc2ccccc2)NC(=O)[C@@H](NC(=O)[C@H](CCCCN)NC(=O)[C@H](Cc2c[nH]c3ccccc23)NC(=O)[C@@H]2CCCN2C(=O)[C@H](Cc2c[nH]c3ccccc23)NC(=O)[C@H](Cc2ccccc2)NC(=O)[C@@H](N)CCCCN)[C@@H](C)CC)CSSC[C@@H](C(=O)O)NC(=O)[C@H](CCCCN)NC(=O)[C@H](CCCCN)NC(=O)[C@H]([C@@H](C)O)NC1=O [KW^3,5B2] (H-KFWPWKIFCAITKKC-OH; disulfide 9-15) | 32 µM (≈ 60.7 µg/mL) | 8 µM (≈ 15.2 µg/mL) | 32.07 µM | 128 µM (≈ 243 µg/mL) | 64 µM (≈ 121 µg/mL) | 256 µM (≈ 486 µg/mL) | 256 µM (≈ 486 µg/mL) | 64 µM (≈ 121 µg/mL) | 32 µM (≈ 60.7 µg/mL) | 32 µM (≈ 60.7 µg/mL) | 8 µM (≈ 15.2 µg/mL) | 16 µM (≈ 30.4 µg/mL) | 32 µM (≈ 60.7 µg/mL) | 16 µM (≈ 30.4 µg/mL)
6 | CC[C@H](C)[C@@H]1NC(=O)[C@H](C)NC(=O)[C@@H](NC(=O)[C@H](Cc2ccccc2)NC(=O)[C@H](Cc2c[nH]c3ccccc23)NC(=O)[C@H](CCCCN)NC(=O)[C@H](Cc2c[nH]c3ccccc23)NC(=O)[C@@H]2CCCN2C(=O)[C@H](CC(C)C)NC(=O)[C@H](Cc2ccccc2)NC(=O)[C@@H](N)CCCCN)CSSC[C@@H](C(=O)O)NC(=O)[C@H](CCCCN)NC(=O)[C@H](CCCCN)NC(=O)[C@H]([C@@H](C)O)NC1=O [KW^5,7B2] (H-KFLPWKWFCAITKKC-OH; disulfide 9-15) | 32 µM (≈ 60.7 µg/mL) | 8 µM (≈ 15.2 µg/mL) | 58.42 µM | 128 µM (≈ 243 µg/mL) | 64 µM (≈ 121 µg/mL) | 512 µM (≈ 971 µg/mL) | 256 µM (≈ 486 µg/mL) | 64 µM (≈ 121 µg/mL) | 32 µM (≈ 60.7 µg/mL) | 32 µM (≈ 60.7 µg/mL) | 16 µM (≈ 30.4 µg/mL) | 16 µM (≈ 30.4 µg/mL) | 64 µM (≈ 121 µg/mL) | 16 µM (≈ 30.4 µg/mL)
7 | CC[C@H](C)[C@@H]1NC(=O)[C@H](C)NC(=O)[C@@H](NC(=O)[C@H](CCCCN)NC(=O)[C@H](C)NC(=O)[C@H](C)NC(=O)[C@H](CC(C)C)NC(=O)CNC(=O)[C@H](C)NC(=O)[C@@H](NC(=O)[C@H](CC(C)C)NC(=O)[C@@H]2CCCN2C(=O)[C@H](CC(C)C)NC(=O)[C@@H](N)Cc2ccccc2)[C@@H](C)CC)CSSC[C@@H](C(=O)O)NC(=O)[C@H](CCCCN)NC(=O)[C@H](CCCCN)NC(=O)[C@H]([C@@H](C)O)NC1=O [Peptide B1A1] (H-FLPLIAGLAAKCAITKKC-OH; disulfide 12-18) | > 512 µM | > 512 µM | could not be calculated and >512 µM | > 512 µM | > 512 µM | > 512 µM | > 512 µM | > 512 µM | > 512 µM | 512 µM (≈ 952 µg/mL) | 512 µM (≈ 952 µg/mL) | > 512 µM | > 512 µM | 512 µM (≈ 952 µg/mL)

Source: article PMC7464788, “Modification and Targeted Design of N-Terminal Truncates Derived from Brevinin with Improved Therapeutic Efficacy” (Biology, 2020)
